Laboratory results from PubChem BioAssay (NCI).
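Results reflect a 48-hour exposure of cells in 96-well plates to compound at five concentrations. TGI: concentration producing complete growth inhibition.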

Assays:
Assay in all cases: growth of human tumour cells (NCI), 48 h
[1] = test system: HL-60(TB) leukemia
[2] = test system: A498 renal
[3] = test system: SF-539 CNS
[4] = test system: LXFL 529 NSCLC
[5] = test system: NCI-H226 lung
[6] = test system: OVCAR-8 ovarian
[7] = test system: HCT-116 colon
[8] = test system: HOP-92 NSCLC
[9] = test system: HOP-62 NSCLC
[10] = test system: SK-MEL-5 melanoma
[11] = test system: OVCAR-5 ovarian
[12] = test system: NCI-H23 lung
[13] = test system: K-562 leukemia
[14] = test system: XF 498 CNS
[15] = test system: SK-OV-3 ovarian
[16] = test system: EKVX NSCLC
[17] = test system: CAKI-1 renal
[18] = test system: U251 CNS
[19] = test system: UACC-257 melanoma
[20] = test system: M19-MEL melanoma
[21] = test system: SF-268 CNS
[22] = test system: TK-10 renal
[23] = test system: SR leukemia
[24] = test system: HCC-2998 colon
[25] = test system: DMS 273 small cell lung
[26] = test system: OVCAR-4 ovarian
[27] = test system: HCT-15 colon
[28] = test system: UACC-62 melanoma
[29] = test system: SNB-75 CNS
[30] = test system: SN12C renal
[31] = test system: DLD-1 colon
[32] = test system: RPMI-8226 leukemia
[33] = test system: ACHN renal
[34] = test system: RXF-631 renal
[35] = test system: UO-31 renal
[36] = test system: NCI-H460 lung
[37] = test system: HT29 colon
[38] = test system: SNB-19 CNS
[39] = test system: SK-MEL-2 melanoma
[40] = test system: SF-295 CNS
[41] = test system: IGROV1 ovarian
[42] = test system: SK-MEL-28 melanoma
[43] = test system: NCI-H522 lung
[44] = test system: COLO 205 colon
[45] = test system: LOX IMVI melanoma
[46] = test system: RXF 393 renal
[47] = test system: MOLT-4 leukemia
[48] = test system: A549 NSCLC
[49] = test system: KM20L2 colon
[50] = test system: SW-620 colon
[51] = test system: DMS 114 small cell lung
[52] = test system: SNB-78 CNS
[53] = test system: CCRF-CEM leukemia
[54] = test system: KM12 colon
[55] = test system: M14 melanoma
[56] = test system: HOP-18 NSCLC
[57] = test system: MALME-3M melanoma
[58] = test system: 786-0 renal
[59] = test system: OVCAR-3 ovarian

In the case of `COC(=O)C(Cc1ccc2c(c1)OCO2)(NC(=O)c1ccccc1)P(=O)(OC)OC` (centres undefined), the TGI [1] is reported as > 100 µM, the TGI [2] is reported as > 100 µM and the TGI [3] is reported as > 100 µM. The TGI [4] was > 100 µM, the TGI [5] was > 100 µM and the TGI [6] was > 100 µM. For the same molecule, the TGI [7] was > 100 µM, the TGI [8] was > 100 µM and the TGI [9] was > 100 µM. The TGI [10] was > 100 µM, the TGI [11] was > 100 µM and the TGI [12] was > 100 µM. The TGI [13] was > 100 µM, the TGI [14] was > 100 µM and the TGI [15] was > 100 µM. The TGI [16] was > 100 µM, the TGI [17] was > 100 µM and the TGI [18] was > 100 µM. The TGI [19] was > 100 µM, the TGI [20] was > 100 µM and the TGI [21] was > 100 µM. For the same molecule, the TGI [22] was > 100 µM, the TGI [23] was > 100 µM and the TGI [24] was > 100 µM. The TGI [25] was > 100 µM, the TGI [26] was > 100 µM and the TGI [27] was > 100 µM. For the same molecule, the TGI [28] was > 100 µM, the TGI [29] was > 100 µM and the TGI [30] was > 100 µM. The TGI [31] was > 100 µM, the TGI [32] was > 100 µM and the TGI [33] was > 100 µM. For the same molecule, the TGI [34] was > 100 µM, the TGI [35] was > 100 µM and the TGI [36] was > 100 µM. For the same molecule, the TGI [37] was > 100 µM, the TGI [38] was > 100 µM and the TGI [39] was > 100 µM. The TGI [40] was > 100 µM, the TGI [41] was > 100 µM and the TGI [42] was > 100 µM. For the same molecule, the TGI [43] was > 100 µM, the TGI [44] was > 100 µM and the TGI [45] was > 100 µM. The TGI [46] was > 100 µM, the TGI [47] was > 100 µM and the TGI [48] was > 100 µM. For the same molecule, the TGI [49] was > 100 µM, the TGI [50] was > 100 µM and the TGI [51] was > 100 µM. For the same molecule, the TGI [52] was > 100 µM, the TGI [53] was > 100 µM and the TGI [54] was > 100 µM. For the same molecule, the TGI [55] was > 100 µM.
In the case of `O=P(c1ccccc1)(c1ccccc1)C1CC=C2CCCCCC2C1` (centres undefined), the TGI [1] is reported as 58.9 µM, the TGI [2] is reported as 97.7 µM and the TGI [3] is reported as > 10 µM. For the same molecule, the TGI [56] was 44.2 µM, the TGI [4] was 46.2 µM and the TGI [5] was 81.1 µM. The TGI [57] was > 100 µM, the TGI [6] was 99.2 µM and the TGI [7] was 40.3 µM. It also gave a TGI [8] of 39.9 µM, a TGI [10] of 46.1 µM and a TGI [11] of 62.2 µM. For the same molecule, the TGI [12] was > 100 µM, the TGI [58] was 51 µM and the TGI [13] was 76.9 µM. For the same molecule, the TGI [14] was 91.6 µM, the TGI [15] was 85.9 µM and the TGI [16] was > 100 µM. For the same molecule, the TGI [17] was 69.5 µM, the TGI [18] was > 100 µM and the TGI [19] was 68.5 µM. For the same molecule, the TGI [20] was > 100 µM, the TGI [21] was 66 µM and the TGI [22] was > 100 µM. For the same molecule, the TGI [25] was 64.5 µM, the TGI [26] was 67.4 µM and the TGI [27] was > 100 µM. The TGI [28] was 69.6 µM, the TGI [29] was 62.7 µM and the TGI [30] was > 100 µM. For the same molecule, the TGI [32] was 42.7 µM, the TGI [34] was 85.4 µM and the TGI [35] was 52.7 µM. The TGI [36] was > 100 µM, the TGI [37] was > 100 µM and the TGI [38] was 81.6 µM. For the same molecule, the TGI [39] was 81.6 µM, the TGI [40] was > 100 µM and the TGI [41] was > 100 µM. The TGI [42] was > 10 µM, the TGI [43] was 41 µM and the TGI [44] was 56.4 µM. It also gave a TGI [59] of 50 µM, a TGI [45] of 65 µM and a TGI [46] of 72.6 µM. The TGI [47] was 45.3 µM, the TGI [48] was > 10 µM and the TGI [49] was > 10 µM. For the same molecule, the TGI [50] was > 10 µM, the TGI [51] was 68.2 µM and the TGI [52] was > 100 µM. The TGI [53] was 61.5 µM, the TGI [54] was > 100 µM and the TGI [55] was 40.9 µM.
In the case of `N#CC1(C2CC(=O)N(c3ccccc3)C2=O)CCCCC1=O` (centres undefined), the TGI [1] is reported as > 100 µM, the TGI [3] is reported as > 100 µM and the TGI [56] is reported as > 100 µM. The TGI [4] was > 100 µM, the TGI [5] was > 100 µM and the TGI [57] was > 100 µM. For the same molecule, the TGI [6] was > 100 µM, the TGI [10] was > 100 µM and the TGI [11] was > 100 µM. The TGI [12] was > 100 µM, the TGI [58] was > 100 µM and the TGI [13] was > 100 µM. For the same molecule, the TGI [14] was > 100 µM, the TGI [15] was > 100 µM and the TGI [16] was > 100 µM. For the same molecule, the TGI [18] was > 100 µM, the TGI [20] was > 100 µM and the TGI [21] was > 100 µM. The TGI [22] was > 100 µM, the TGI [23] was > 100 µM and the TGI [24] was > 100 µM. For the same molecule, the TGI [25] was > 100 µM, the TGI [26] was > 100 µM and the TGI [27] was > 100 µM. The TGI [28] was > 100 µM, the TGI [29] was > 100 µM and the TGI [30] was > 100 µM. The TGI [31] was > 100 µM, the TGI [32] was > 100 µM and the TGI [33] was > 100 µM. The TGI [34] was > 100 µM, the TGI [35] was > 100 µM and the TGI [36] was > 100 µM. The TGI [37] was > 100 µM, the TGI [38] was > 100 µM and the TGI [40] was > 100 µM. The TGI [41] was > 100 µM, the TGI [42] was > 100 µM and the TGI [44] was > 100 µM. For the same molecule, the TGI [59] was > 100 µM, the TGI [45] was > 100 µM and the TGI [46] was > 100 µM. For the same molecule, the TGI [47] was > 100 µM, the TGI [48] was > 100 µM and the TGI [50] was > 100 µM. The TGI [51] was > 100 µM, the TGI [52] was > 100 µM and the TGI [53] was > 100 µM. For the same molecule, the TGI [54] was > 100 µM and the TGI [55] was > 100 µM.
